We go through four compounds from PubChem BioAssay AID1963984 (Molecular Pharmacology Branch, DTP, NCI, 2024).

Each structure is given as a SMILES string. A value given as a limit tells only on which side of the number the result lay.
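Also: spheroids exposed to agents for seven days before readout.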
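For viability, T/C in this document: percent viability relative to DMSO vehicle control taken as 100%.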

One assay relates to 233499-124-R-J3-PDC spheroids with HUVEC/MSC, viability. The assay can be described thus: Anticancer human tumor 233499-124-R-J3-PDC patient-derived colon adenocarcinoma cell line growth inhibition [PI3K]. To be noted: curve of first compound; second compound 0.0316 µM. The procedure, abridged:
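Targeted small molecules plus PI3K inhibitors, half-log dose series from Cmax (default top 10 microM), were applied to heterotypic spheroids of cancer cells with HUVEC and MSCs. Viability indicated growth inhibition.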
Turning to `C#Cc1c(F)ccc2cc(O)cc(-c3ncc4c(N5CC6CCC(C5)N6)nc(OCC56CCCN5CC(F)C6)nc4c3F)c12` (configuration not stated) + CC(Nc1ncnc2nc[nH]c12)c1cc2cccc(Cl)c2c(=O)n1-c1ccccc1, the IC50 (as a rule, the point on the concentration scale where inhibition reaches its midpoint) is over 10 µM.

As for `C=CC(=O)N1CCN(c2nc(=O)n(-c3c(C)ccnc3C(C)C)c3nc(-c4c(O)cccc4F)c(F)cc23)C(C)C1` (configuration not stated) + CC(Nc1ncnc2nc[nH]c12)c1cc2cccc(Cl)c2c(=O)n1-c1ccccc1, the IC50 is over 10 µM.

With `CC(Cn1ccc(-c2ccc(C#N)c(Cl)c2)n1)NC(=O)c1cc(C(C)O)[nH]n1` (configuration not stated) + CC(Nc1ncnc2nc[nH]c12)c1cc2cccc(Cl)c2c(=O)n1-c1ccccc1, the IC50 was over 10 µM.

For `CC1(C)CCC(Nc2ncc(C(F)(F)F)c(-c3c[nH]c4c(P(C)(C)=O)c(C#N)ccc34)n2)CN1` (configuration not stated) + CC(Nc1ncnc2nc[nH]c12)c1cc2cccc(Cl)c2c(=O)n1-c1ccccc1, the IC50 stood at 0.202 µM.

The same assay, now with this note: curve of first compound; second compound 0.1 µM.
On to `C#Cc1c(F)ccc2cc(O)cc(-c3ncc4c(N5CC6CCC(C5)N6)nc(OCC56CCCN5CC(F)C6)nc4c3F)c12` (configuration not stated) + CC(Nc1ncnc2nc[nH]c12)c1cc2cccc(Cl)c2c(=O)n1-c1ccccc1, for which the IC50 was over 10 µM.

`C=CC(=O)N1CCN(c2nc(=O)n(-c3c(C)ccnc3C(C)C)c3nc(-c4c(O)cccc4F)c(F)cc23)C(C)C1` (configuration not stated) + CC(Nc1ncnc2nc[nH]c12)c1cc2cccc(Cl)c2c(=O)n1-c1ccccc1: the IC50 is over 10 µM.

As to `CC(Cn1ccc(-c2ccc(C#N)c(Cl)c2)n1)NC(=O)c1cc(C(C)O)[nH]n1` (configuration not stated) + CC(Nc1ncnc2nc[nH]c12)c1cc2cccc(Cl)c2c(=O)n1-c1ccccc1, the IC50 was over 10 µM.

Consider `CC1(C)CCC(Nc2ncc(C(F)(F)F)c(-c3c[nH]c4c(P(C)(C)=O)c(C#N)ccc34)n2)CN1` (configuration not stated) + CC(Nc1ncnc2nc[nH]c12)c1cc2cccc(Cl)c2c(=O)n1-c1ccccc1, for which the IC50 turned out to be 0.21 µM.

The assay is the same for the next values; noted with them: curve of first compound; second compound 0.316 µM.
For the compound `C#Cc1c(F)ccc2cc(O)cc(-c3ncc4c(N5CC6CCC(C5)N6)nc(OCC56CCCN5CC(F)C6)nc4c3F)c12` (configuration not stated) + CC(Nc1ncnc2nc[nH]c12)c1cc2cccc(Cl)c2c(=O)n1-c1ccccc1, the IC50 is over 10 µM.

Regarding `C=CC(=O)N1CCN(c2nc(=O)n(-c3c(C)ccnc3C(C)C)c3nc(-c4c(O)cccc4F)c(F)cc23)C(C)C1` (configuration not stated) + CC(Nc1ncnc2nc[nH]c12)c1cc2cccc(Cl)c2c(=O)n1-c1ccccc1, the IC50 was over 10 µM.

Consider `CC(Cn1ccc(-c2ccc(C#N)c(Cl)c2)n1)NC(=O)c1cc(C(C)O)[nH]n1` (configuration not stated) + CC(Nc1ncnc2nc[nH]c12)c1cc2cccc(Cl)c2c(=O)n1-c1ccccc1, for which the IC50 was over 10 µM.

`CC1(C)CCC(Nc2ncc(C(F)(F)F)c(-c3c[nH]c4c(P(C)(C)=O)c(C#N)ccc34)n2)CN1` (configuration not stated) + CC(Nc1ncnc2nc[nH]c12)c1cc2cccc(Cl)c2c(=O)n1-c1ccccc1: the IC50 is 0.0903 µM.

The assay is the same for the next values; noted with them: curve of first compound; second compound 1 µM.
With `C#Cc1c(F)ccc2cc(O)cc(-c3ncc4c(N5CC6CCC(C5)N6)nc(OCC56CCCN5CC(F)C6)nc4c3F)c12` (configuration not stated) + CC(Nc1ncnc2nc[nH]c12)c1cc2cccc(Cl)c2c(=O)n1-c1ccccc1, the IC50 is over 10 µM.

As to `C=CC(=O)N1CCN(c2nc(=O)n(-c3c(C)ccnc3C(C)C)c3nc(-c4c(O)cccc4F)c(F)cc23)C(C)C1` (configuration not stated) + CC(Nc1ncnc2nc[nH]c12)c1cc2cccc(Cl)c2c(=O)n1-c1ccccc1, the IC50 is over 10 µM.

`CC(Cn1ccc(-c2ccc(C#N)c(Cl)c2)n1)NC(=O)c1cc(C(C)O)[nH]n1` (configuration not stated) + CC(Nc1ncnc2nc[nH]c12)c1cc2cccc(Cl)c2c(=O)n1-c1ccccc1: the IC50 is over 10 µM.

As for `CC1(C)CCC(Nc2ncc(C(F)(F)F)c(-c3c[nH]c4c(P(C)(C)=O)c(C#N)ccc34)n2)CN1` (configuration not stated) + CC(Nc1ncnc2nc[nH]c12)c1cc2cccc(Cl)c2c(=O)n1-c1ccccc1, the IC50 came out at 0.17 µM.

The assay is the same for the next values; noted with them: curve of first compound; second compound 3.16 µM.
Regarding `C#Cc1c(F)ccc2cc(O)cc(-c3ncc4c(N5CC6CCC(C5)N6)nc(OCC56CCCN5CC(F)C6)nc4c3F)c12` (configuration not stated) + CC(Nc1ncnc2nc[nH]c12)c1cc2cccc(Cl)c2c(=O)n1-c1ccccc1, the IC50 is over 10 µM.

`C=CC(=O)N1CCN(c2nc(=O)n(-c3c(C)ccnc3C(C)C)c3nc(-c4c(O)cccc4F)c(F)cc23)C(C)C1` (configuration not stated) + CC(Nc1ncnc2nc[nH]c12)c1cc2cccc(Cl)c2c(=O)n1-c1ccccc1: the IC50 is over 10 µM.

For the compound `CC(Cn1ccc(-c2ccc(C#N)c(Cl)c2)n1)NC(=O)c1cc(C(C)O)[nH]n1` (configuration not stated) + CC(Nc1ncnc2nc[nH]c12)c1cc2cccc(Cl)c2c(=O)n1-c1ccccc1, the IC50 was over 10 µM.

`CC1(C)CCC(Nc2ncc(C(F)(F)F)c(-c3c[nH]c4c(P(C)(C)=O)c(C#N)ccc34)n2)CN1` (configuration not stated) + CC(Nc1ncnc2nc[nH]c12)c1cc2cccc(Cl)c2c(=O)n1-c1ccccc1: the IC50 stood at 0.273 µM.

Still in this assay, the particulars now being: curve of first compound; second compound 10 µM.
On to `C#Cc1c(F)ccc2cc(O)cc(-c3ncc4c(N5CC6CCC(C5)N6)nc(OCC56CCCN5CC(F)C6)nc4c3F)c12` (configuration not stated) + CC(Nc1ncnc2nc[nH]c12)c1cc2cccc(Cl)c2c(=O)n1-c1ccccc1, for which the IC50 was over 10 µM.

`C=CC(=O)N1CCN(c2nc(=O)n(-c3c(C)ccnc3C(C)C)c3nc(-c4c(O)cccc4F)c(F)cc23)C(C)C1` (configuration not stated) + CC(Nc1ncnc2nc[nH]c12)c1cc2cccc(Cl)c2c(=O)n1-c1ccccc1: the concentration for half-maximal inhibition (IC50) is over 10 µM.

In the case of `CC(Cn1ccc(-c2ccc(C#N)c(Cl)c2)n1)NC(=O)c1cc(C(C)O)[nH]n1` (configuration not stated) + CC(Nc1ncnc2nc[nH]c12)c1cc2cccc(Cl)c2c(=O)n1-c1ccccc1, the IC50 is over 10 µM.

Regarding `CC1(C)CCC(Nc2ncc(C(F)(F)F)c(-c3c[nH]c4c(P(C)(C)=O)c(C#N)ccc34)n2)CN1` (configuration not stated) + CC(Nc1ncnc2nc[nH]c12)c1cc2cccc(Cl)c2c(=O)n1-c1ccccc1, the IC50 is under 0.0316 µM.

Staying with this assay, now noted: second compound 0.0316 µM; first compound 0.0316 µM; stronger effect = lower value.
As for `C#Cc1c(F)ccc2cc(O)cc(-c3ncc4c(N5CC6CCC(C5)N6)nc(OCC56CCCN5CC(F)C6)nc4c3F)c12` (configuration not stated) + CC(Nc1ncnc2nc[nH]c12)c1cc2cccc(Cl)c2c(=O)n1-c1ccccc1, the viability, T/C – broadly, the result in the treated group divided by that in the control group, in per cent – is 95%.

As to `C=CC(=O)N1CCN(c2nc(=O)n(-c3c(C)ccnc3C(C)C)c3nc(-c4c(O)cccc4F)c(F)cc23)C(C)C1` (configuration not stated) + CC(Nc1ncnc2nc[nH]c12)c1cc2cccc(Cl)c2c(=O)n1-c1ccccc1, the viability, T/C is 103%.

For the compound `CC(Cn1ccc(-c2ccc(C#N)c(Cl)c2)n1)NC(=O)c1cc(C(C)O)[nH]n1` (configuration not stated) + CC(Nc1ncnc2nc[nH]c12)c1cc2cccc(Cl)c2c(=O)n1-c1ccccc1, the viability, T/C was 100%.

On to `CC1(C)CCC(Nc2ncc(C(F)(F)F)c(-c3c[nH]c4c(P(C)(C)=O)c(C#N)ccc34)n2)CN1` (configuration not stated) + CC(Nc1ncnc2nc[nH]c12)c1cc2cccc(Cl)c2c(=O)n1-c1ccccc1, for which the viability, T/C was 88.8%.

The assay is the same for the next values; noted with them: second compound 0.0316 µM; first compound 0.1 µM; stronger effect = lower value.
As for `C#Cc1c(F)ccc2cc(O)cc(-c3ncc4c(N5CC6CCC(C5)N6)nc(OCC56CCCN5CC(F)C6)nc4c3F)c12` (configuration not stated) + CC(Nc1ncnc2nc[nH]c12)c1cc2cccc(Cl)c2c(=O)n1-c1ccccc1, the viability, T/C was 101%.

Consider `C=CC(=O)N1CCN(c2nc(=O)n(-c3c(C)ccnc3C(C)C)c3nc(-c4c(O)cccc4F)c(F)cc23)C(C)C1` (configuration not stated) + CC(Nc1ncnc2nc[nH]c12)c1cc2cccc(Cl)c2c(=O)n1-c1ccccc1, for which the viability, T/C is 89.2%.

`CC(Cn1ccc(-c2ccc(C#N)c(Cl)c2)n1)NC(=O)c1cc(C(C)O)[nH]n1` (configuration not stated) + CC(Nc1ncnc2nc[nH]c12)c1cc2cccc(Cl)c2c(=O)n1-c1ccccc1: the viability, T/C was 84.7%.

With `CC1(C)CCC(Nc2ncc(C(F)(F)F)c(-c3c[nH]c4c(P(C)(C)=O)c(C#N)ccc34)n2)CN1` (configuration not stated) + CC(Nc1ncnc2nc[nH]c12)c1cc2cccc(Cl)c2c(=O)n1-c1ccccc1, the viability, T/C is 52.3%.

Still in this assay, the particulars now being: second compound 0.0316 µM; first compound 0.316 µM; stronger effect = lower value.
Consider `C#Cc1c(F)ccc2cc(O)cc(-c3ncc4c(N5CC6CCC(C5)N6)nc(OCC56CCCN5CC(F)C6)nc4c3F)c12` (configuration not stated) + CC(Nc1ncnc2nc[nH]c12)c1cc2cccc(Cl)c2c(=O)n1-c1ccccc1, for which the viability, T/C was 82.5%.

In the case of `C=CC(=O)N1CCN(c2nc(=O)n(-c3c(C)ccnc3C(C)C)c3nc(-c4c(O)cccc4F)c(F)cc23)C(C)C1` (configuration not stated) + CC(Nc1ncnc2nc[nH]c12)c1cc2cccc(Cl)c2c(=O)n1-c1ccccc1, the viability, T/C is 81.2%.

Take `CC(Cn1ccc(-c2ccc(C#N)c(Cl)c2)n1)NC(=O)c1cc(C(C)O)[nH]n1` (configuration not stated) + CC(Nc1ncnc2nc[nH]c12)c1cc2cccc(Cl)c2c(=O)n1-c1ccccc1: the viability, T/C is 93.2%.

Regarding `CC1(C)CCC(Nc2ncc(C(F)(F)F)c(-c3c[nH]c4c(P(C)(C)=O)c(C#N)ccc34)n2)CN1` (configuration not stated) + CC(Nc1ncnc2nc[nH]c12)c1cc2cccc(Cl)c2c(=O)n1-c1ccccc1, the viability, T/C was 40%.

The same assay, now with this note: second compound 0.0316 µM; first compound 1 µM; stronger effect = lower value.
Consider `C#Cc1c(F)ccc2cc(O)cc(-c3ncc4c(N5CC6CCC(C5)N6)nc(OCC56CCCN5CC(F)C6)nc4c3F)c12` (configuration not stated) + CC(Nc1ncnc2nc[nH]c12)c1cc2cccc(Cl)c2c(=O)n1-c1ccccc1, for which the viability, T/C is 90.7%.

Consider `C=CC(=O)N1CCN(c2nc(=O)n(-c3c(C)ccnc3C(C)C)c3nc(-c4c(O)cccc4F)c(F)cc23)C(C)C1` (configuration not stated) + CC(Nc1ncnc2nc[nH]c12)c1cc2cccc(Cl)c2c(=O)n1-c1ccccc1, for which the viability, T/C is 84.3%.

`CC(Cn1ccc(-c2ccc(C#N)c(Cl)c2)n1)NC(=O)c1cc(C(C)O)[nH]n1` (configuration not stated) + CC(Nc1ncnc2nc[nH]c12)c1cc2cccc(Cl)c2c(=O)n1-c1ccccc1: the viability, T/C was 91.9%.

Take `CC1(C)CCC(Nc2ncc(C(F)(F)F)c(-c3c[nH]c4c(P(C)(C)=O)c(C#N)ccc34)n2)CN1` (configuration not stated) + CC(Nc1ncnc2nc[nH]c12)c1cc2cccc(Cl)c2c(=O)n1-c1ccccc1: the viability, T/C was 50.8%.

The same assay, now with this note: second compound 0.0316 µM; first compound 3.16 µM; stronger effect = lower value.
For `C#Cc1c(F)ccc2cc(O)cc(-c3ncc4c(N5CC6CCC(C5)N6)nc(OCC56CCCN5CC(F)C6)nc4c3F)c12` (configuration not stated) + CC(Nc1ncnc2nc[nH]c12)c1cc2cccc(Cl)c2c(=O)n1-c1ccccc1, the viability, T/C is 85.2%.

Take `C=CC(=O)N1CCN(c2nc(=O)n(-c3c(C)ccnc3C(C)C)c3nc(-c4c(O)cccc4F)c(F)cc23)C(C)C1` (configuration not stated) + CC(Nc1ncnc2nc[nH]c12)c1cc2cccc(Cl)c2c(=O)n1-c1ccccc1: the viability, T/C was 85.8%.
